Source: patent US20250064947A1, “CYTOTOXICITY TARGETING CHIMERAS FOR FIBROBLAST ACTIVATION PROTEIN-EXPRESSING CELLS” (Glaxosmithkline Intellectual Property Development Limited, priority 2022, published 2025)

Target: T1, FAP (Homo sapiens, UniProt Q12884)
T1 construct: Target cells: WI-38 cells (typically 1000-20,000 cells per well); endogenous in cells; host or cells: WI-38 cells
T1 sequence (Q12884 1-760): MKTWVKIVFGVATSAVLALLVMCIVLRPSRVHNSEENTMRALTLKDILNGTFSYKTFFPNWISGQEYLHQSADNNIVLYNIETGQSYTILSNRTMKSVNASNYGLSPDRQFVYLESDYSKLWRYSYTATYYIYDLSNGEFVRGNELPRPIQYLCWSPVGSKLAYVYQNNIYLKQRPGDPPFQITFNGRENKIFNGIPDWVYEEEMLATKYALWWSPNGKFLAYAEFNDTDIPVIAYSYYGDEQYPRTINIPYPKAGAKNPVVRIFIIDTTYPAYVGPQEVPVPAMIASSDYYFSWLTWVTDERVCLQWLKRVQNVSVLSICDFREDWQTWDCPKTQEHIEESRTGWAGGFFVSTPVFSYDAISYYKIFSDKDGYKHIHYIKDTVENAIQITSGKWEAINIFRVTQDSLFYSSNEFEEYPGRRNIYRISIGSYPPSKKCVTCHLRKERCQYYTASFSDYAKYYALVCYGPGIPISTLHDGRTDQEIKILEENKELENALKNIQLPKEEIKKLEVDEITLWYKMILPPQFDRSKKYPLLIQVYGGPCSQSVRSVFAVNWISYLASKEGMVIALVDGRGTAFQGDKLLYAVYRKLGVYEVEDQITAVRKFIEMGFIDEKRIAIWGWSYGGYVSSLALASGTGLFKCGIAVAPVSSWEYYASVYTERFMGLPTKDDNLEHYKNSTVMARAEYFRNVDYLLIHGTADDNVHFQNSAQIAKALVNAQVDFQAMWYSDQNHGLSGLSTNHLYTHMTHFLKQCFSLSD
Experiment: Antibody dependent cellular cytotoxicity (ADCC) reporter assay
Type: cell-based
Conditions: WI-38 target cells; Jurkat FcγRIIIa NFAT-luciferase reporter cells; with anti-cotinine antibody (SEQ ID NO: 11/12); 12-18 hours; average if more than one run; read-out: ADCC Reporter Assay pEC50 (converted)
Experimental: An antibody dependent cellular cytotoxicity (ADCC) reporter assay was conducted using the following four assay components: (i) ARM compound of Formula (I) targeting FAP (concentrations ranging from […]); (ii) anti-cotinine antibody having a heavy chain sequence of SEQ ID NO: 11 and a light chain sequence of SEQ ID NO: 12 (rabbit variable region with human IgG1 Fc domain containing DE mutation (S239D/I332E)) (concentrations ranging from 0.01 μg/mL 200 μg/mL); (iii) Target cells: WI-38 cells (typically 1000-20,000 cells per well); and (iv) Reporter cells—Jurkat cells engineered to express FcγRIIIa with a reporter gene luciferase under the control of the NFAT promoter (typically 3000-75,000 cells per well). Reagents were combined in final volume of 20 μL in 384—well tissue culture treated plate. All four assay components were incubated together for about 12-18 hours. Thereafter, BioGlo Detection reagent (Promega) was added to the wells to lyse the cells and provide a substrate for the luciferase reporter protein.
Luminescence signal was measured on a microplate reader capable of measuring luminescence and signal:background was calculated by dividing the signal of a test well by the signal obtained when no compound of formula (I) was included in the assay. EC50 calculations were done using Graphpad Prism Software, specifically a nonlinear regression curve fit (Y=Bottom+(Top−Bottom)/(1+10^((Log EC50−X)*HillSlope))).
ARMs compounds of Formula (I) were tested for ADCC activity in the above assay in one or more experimental runs and the results are shown in Table 3 below. Potency of the compounds of Formula (I) is reported as a pEC50 values. The pEC50 value is the negative log of the EC50 value, wherein the EC50 value is half maximal effective concentration measured in molar (M). For compounds tested in more than one experimental run, the pEC50 value is reported as an average.

SMILES | EC50 [nM]
CN1C(=O)C[C@H](C(=O)NCCOCCOCCOCCOCCOCCOCCOCCOCCOCCOCCOCCOCCOCCOCCOCCNC(=O)COc2ccc3nccc(C(=O)NCC(=O)N4CCC[C@@H]4C#N)c3c2)[C@H]1c1cccnc1 [Example 8, N-(2-((R)-2-cyanopyrrolidin-1-yl)-2-oxoethyl)-6-((1-((2S,3S)-1-methyl-5-oxo-2-(pyridin-3-yl)pyrrolidin-3-yl)-1,51-dioxo-5,8,11,14,17,20,23,26,29,32,35,38,41,44,47-pentadecaoxa-2,50-diazadopentacontan-52-yl)oxy)quinoline-4-carboxamide] | 3.98
CN1C(=O)C[C@H](C(=O)NCCOCCOCCOCCOCCOCCOCCOCCOCCOCCOCCOCCOCCOCCOCCOCCNC(=O)COc2ccc3c(C(=O)NCC(=O)N4CCC[C@H]4C#N)ccnc3c2)[C@H]1c1cccnc1 [Example 10, N-(2-((S)-2-cyanopyrrolidin-1-yl)-2-oxoethyl)-7-((1-((2S,3S)-1-methyl-5-oxo-2-(pyridin-3-yl)pyrrolidin-3-yl)-1,51-dioxo-5,8,11,14,17,20,23,26,29,32,35,38,41,44,47-pentadecaoxa-2,50-diazadopentacontan-52-yl)oxy)quinoline-4-carboxamide] | > 1000
CN(CCNC(=O)CCOCCOCCOCCOCCOCCOCCOCCOCCOCCOCCOCCOCCOCCOCCOCCOCCOCCOCCOCCOCCNC(=O)[C@H]1CC(=O)N(C)[C@@H]1c1cccnc1)c1ccc2nccc(C(=O)NCC(=O)N3CC(F)(F)C[C@H]3C#N)c2c1 [Example 6, N-(2-((S)-2-cyano-4,4-difluoropyrrolidin-1-yl)-2-oxoethyl)-6-(methyl(1-((2S,3S)-1-methyl-5-oxo-2-(pyridin-3-yl)pyrrolidin-3-yl)-1,65-dioxo-5,8,11,14,17,20,23,26,29,32,35,38,41,44,47,50,53,56,59,62-icosaoxa-2,66-diazaoctahexacontan-68-yl)amino)quinoline-4-carboxamide] | 12.6
